Reference: patent US9901582B2, “Polymorphisms in ABCB1 associated with a lack of clinical response to medicaments” (Max-Planck-Gesellschaft zur Förderung der Wisenschaften e. …, priority 2007, dated 2018)
Where two headings read alike, the source gives them in different places.

How the values were obtained:
P-gp [1] = experiment: Organ and plasma concentrations of antidepressants in abcb1ab(−/−) knockout mice versus FVB/N wild-type controls (blood-organ barrier function); settings: for brain concentrations, times higher in the mutant mice compared to wild-type littermates: 11 days, s.c. osmotic infusion pumps; for cerebrum concentration, abcb1ab (−/−) / kidney concentration, abcb1ab (−/−) / liver concentration, abcb1ab (−/−) / lung concentration, abcb1ab (−/−) / plasma concentration, abcb1ab (−/−) / spleen concentration, abcb1ab (−/−) / testes concentration, abcb1ab (−/−): abcb1ab(−/−) mice; for cerebrum concentration, abcb1ab (−/−) / kidney concentration, abcb1ab (−/−) / liver concentration, abcb1ab (−/−) / lung concentration, abcb1ab (−/−) / plasma concentration, abcb1ab (−/−) / spleen concentration, abcb1ab (−/−) / testes concentration, abcb1ab (−/−) / cerebrum concentration, control / kidney concentration, control / liver concentration, control / lung concentration, control / plasma concentration, control / spleen concentration, control / testes concentration, control: after 11 days s.c. via osmotic pumps; for penetration into the brain (organ/plasma concentration ratio), times higher in animals lacking P-gp than in control animals / ratio (−/−)/(+/+), cerebrum / ratio (−/−)/(+/+), kidney / ratio (−/−)/(+/+), liver / ratio (−/−)/(+/+), lung / ratio (−/−)/(+/+), plasma / ratio (−/−)/(+/+), spleen / ratio (−/−)/(+/+), testes / differences in testes/plasma ratio between knockout and control: 11 days s.c.; for penetration into the brain (organ/plasma concentration ratio), times higher in animals lacking P-gp than in control animals / differences in testes/plasma ratio between knockout and control: FIG. 1; for ratio (−/−)/(+/+), cerebrum: cerebrum concentration; for ratio (−/−)/(+/+), cerebrum / ratio (−/−)/(+/+), kidney / ratio (−/−)/(+/+), liver / ratio (−/−)/(+/+), lung / ratio (−/−)/(+/+), plasma / ratio (−/−)/(+/+), spleen / ratio (−/−)/(+/+), testes: knockout/control; for ratio (−/−)/(+/+), kidney: kidney concentration; for ratio (−/−)/(+/+), liver: liver concentration; for ratio (−/−)/(+/+), lung: lung concentration; for ratio (−/−)/(+/+), plasma: plasma concentration; for ratio (−/−)/(+/+), spleen: spleen concentration; for ratio (−/−)/(+/+), testes: testes concentration; for cerebrum concentration, control / kidney concentration, control / liver concentration, control / lung concentration, control / plasma concentration, control / spleen concentration, control / testes concentration, control: wild-type control mice
ABCB1 = ABCB1 (Homo sapiens, UniProt P08183); settings: cited from earlier work; for Inducer: inducer of ABCB1
P-gp [2] = settings: after single administration, same mouse model; cited from earlier work
P-gp [3] = settings: mouse
ABCB1 gene = settings: human, in vivo
Protocol: The antidepressant plasma concentration was monitored to assure clinically efficient drug levels.
To this end, we created the residuals of linear regression with the dependent variable drug dose or plasma concentration and the independent variables age and gender. These residuals and SNP genotyping data were tested in an ANOVA analysis for statistical differences between the genotypes. Empiric p-values were calculated by applying 10^6 permutations (residuals randomly redistributed over the genotypes). Fisher's product method (FPM) includes the residuals of the dose or plasma concentration variables and the genotype variables from the SNPs rs2235067, rs4148740, rs2032583, rs4148739, rs11983225, rs2235040, rs12720067, rs7787082, rs10248420, rs10280101 and rs2235015.

[4] = male, FVB/N wild-type, in vivo, sc, 11 days
[5] = male, abcb1ab(−/−) on FVB/N background versus FVB/N wild-type, in vivo, sc, 11 days
[6] = male, abcb1ab(−/−) on FVB/N background, in vivo, sc, 11 days

Sequence of ABCB1 (P08183 whole entry): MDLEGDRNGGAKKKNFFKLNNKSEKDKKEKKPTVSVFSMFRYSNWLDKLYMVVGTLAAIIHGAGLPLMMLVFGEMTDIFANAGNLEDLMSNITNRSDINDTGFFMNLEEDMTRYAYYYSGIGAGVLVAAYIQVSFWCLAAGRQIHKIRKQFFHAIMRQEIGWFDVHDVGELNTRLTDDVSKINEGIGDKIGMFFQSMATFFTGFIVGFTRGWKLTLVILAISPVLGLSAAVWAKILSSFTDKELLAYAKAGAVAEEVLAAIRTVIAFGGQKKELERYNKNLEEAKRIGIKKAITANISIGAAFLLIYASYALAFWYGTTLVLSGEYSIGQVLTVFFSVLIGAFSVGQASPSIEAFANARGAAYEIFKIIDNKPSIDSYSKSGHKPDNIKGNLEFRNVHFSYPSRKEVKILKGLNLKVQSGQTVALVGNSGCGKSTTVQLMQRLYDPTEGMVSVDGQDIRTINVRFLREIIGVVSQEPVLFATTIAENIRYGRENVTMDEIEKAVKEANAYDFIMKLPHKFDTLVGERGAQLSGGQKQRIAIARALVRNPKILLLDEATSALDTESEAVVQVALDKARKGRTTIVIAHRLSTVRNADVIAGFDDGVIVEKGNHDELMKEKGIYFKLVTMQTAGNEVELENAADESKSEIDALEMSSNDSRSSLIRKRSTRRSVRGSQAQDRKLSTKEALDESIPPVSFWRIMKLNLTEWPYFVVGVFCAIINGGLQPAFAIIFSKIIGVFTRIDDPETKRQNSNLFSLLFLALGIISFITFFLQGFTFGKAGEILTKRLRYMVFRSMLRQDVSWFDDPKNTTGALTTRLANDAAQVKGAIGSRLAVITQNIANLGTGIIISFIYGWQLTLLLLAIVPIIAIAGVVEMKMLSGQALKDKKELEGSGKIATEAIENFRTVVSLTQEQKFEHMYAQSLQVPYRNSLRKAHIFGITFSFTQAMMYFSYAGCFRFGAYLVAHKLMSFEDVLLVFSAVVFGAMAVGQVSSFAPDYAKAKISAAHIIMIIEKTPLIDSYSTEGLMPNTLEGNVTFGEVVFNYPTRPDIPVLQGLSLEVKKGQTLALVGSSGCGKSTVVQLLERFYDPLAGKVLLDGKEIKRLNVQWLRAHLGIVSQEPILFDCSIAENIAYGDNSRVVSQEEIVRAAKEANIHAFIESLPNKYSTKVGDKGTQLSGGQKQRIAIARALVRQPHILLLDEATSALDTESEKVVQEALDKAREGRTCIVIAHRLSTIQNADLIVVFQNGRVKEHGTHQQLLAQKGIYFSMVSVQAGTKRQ

SMILES: CN(C)CC(c1ccc(O)cc1)C1(O)CCCCC1 [D-Venlafaxine, O-desmethyl venlafaxine]
- brain concentrations, times higher in the mutant mice compared to wild-type littermates (P-gp [1]): 4.1 times
- cerebrum concentration, abcb1ab (−/−) (P-gp [1]): 36.99 ng/g or ml
- kidney concentration, abcb1ab (−/−) (P-gp [1]): 127.32 ng/g or ml
- liver concentration, abcb1ab (−/−) (P-gp [1]): 88.22 ng/g or ml
- lung concentration, abcb1ab (−/−) (P-gp [1]): 44.91 ng/g or ml
- plasma concentration, abcb1ab (−/−) (P-gp [1]): 5.98 ng/g or ml
- spleen concentration, abcb1ab (−/−) (P-gp [1]): 33.80 ng/g or ml
- testes concentration, abcb1ab (−/−) (P-gp [1]): 39.19 ng/g or ml
- penetration into the brain (organ/plasma concentration ratio), times higher in animals lacking P-gp than in control animals (P-gp [1]): 3.6 times
- ratio (−/−)/(+/+), cerebrum (P-gp [1]): 4.1
- ratio (−/−)/(+/+), kidney (P-gp [1]): 1.2
- ratio (−/−)/(+/+), liver (P-gp [1]): 1.1
- ratio (−/−)/(+/+), lung (P-gp [1]): 0.9
- ratio (−/−)/(+/+), plasma (P-gp [1]): 1.1
- ratio (−/−)/(+/+), spleen (P-gp [1]): 1.1
- ratio (−/−)/(+/+), testes (P-gp [1]): 1.3
- differences in testes/plasma ratio between knockout and control (P-gp [1]): smaller but still significant differences
- cerebrum concentration, control (P-gp [1]): 8.97 ng/g or ml
- kidney concentration, control (P-gp [1]): 107.88 ng/g or ml
- liver concentration, control (P-gp [1]): 83.15 ng/g or ml
- lung concentration, control (P-gp [1]): 50.63 ng/g or ml
- plasma concentration, control (P-gp [1]): 5.50 ng/g or ml
- spleen concentration, control (P-gp [1]): 29.42 ng/g or ml
- testes concentration, control (P-gp [1]): 30.18 ng/g or ml

SMILES: O=c1n(CCCN2CCN(c3cccc(Cl)c3)CC2)nc2ccccn12 [Trazodone]
- Inducer (ABCB1): (x)

SMILES: Fc1ccc([C@@H]2CCNC[C@H]2COc2ccc3c(c2)OCO3)cc1 [Paroxetine]
- P-gp substrate status at the blood-brain barrier, earlier studies (P-gp [2]): substrates of P-gp at the blood-brain barrier

SMILES: COc1ccc(C(CN(C)C)C2(O)CCCCC2)cc1 (centres unmarked) [Venlafaxine]
- P-gp substrate status at the blood-brain barrier, earlier studies (P-gp [2]): substrates of P-gp at the blood-brain barrier
- brain concentrations, times higher in the mutant mice compared to wild-type littermates (P-gp [1]): 1.7 times
- cerebrum concentration, abcb1ab (−/−) (P-gp [1]): 456.32 ng/g or ml
- kidney concentration, abcb1ab (−/−) (P-gp [1]): 1054.88 ng/g or ml
- liver concentration, abcb1ab (−/−) (P-gp [1]): 323.22 ng/g or ml
- lung concentration, abcb1ab (−/−) (P-gp [1]): 672.59 ng/g or ml
- plasma concentration, abcb1ab (−/−) (P-gp [1]): 70.57 ng/g or ml
- spleen concentration, abcb1ab (−/−) (P-gp [1]): 564.20 ng/g or ml
- testes concentration, abcb1ab (−/−) (P-gp [1]): 842.61 ng/g or ml
- penetration into the brain (organ/plasma concentration ratio), times higher in animals lacking P-gp than in control animals (P-gp [1]): 1.8 times
- ratio (−/−)/(+/+), cerebrum (P-gp [1]): 1.7
- ratio (−/−)/(+/+), kidney (P-gp [1]): 1.0
- ratio (−/−)/(+/+), liver (P-gp [1]): 1.0
- ratio (−/−)/(+/+), lung (P-gp [1]): 0.9
- ratio (−/−)/(+/+), plasma (P-gp [1]): 1.0
- ratio (−/−)/(+/+), spleen (P-gp [1]): 1.0
- ratio (−/−)/(+/+), testes (P-gp [1]): 1.2
- differences in testes/plasma ratio between knockout and control (P-gp [1]): smaller but still significant differences
- P-gp substrate status at the BBB (P-gp [1]; this study, administration over 11 days): substrates of P-gp at the BBB
- cerebrum concentration, control (P-gp [1]): 261.14 ng/g or ml
- kidney concentration, control (P-gp [1]): 1035.27 ng/g or ml
- liver concentration, control (P-gp [1]): 314.59 ng/g or ml
- lung concentration, control (P-gp [1]): 747.38 ng/g or ml
- plasma concentration, control (P-gp [1]): 71.37 ng/g or ml
- spleen concentration, control (P-gp [1]): 581.95 ng/g or ml
- testes concentration, control (P-gp [1]): 715.92 ng/g or ml

SMILES: CN1CCN2c3ncccc3Cc3ccccc3C2C1 (centres unmarked) [Mirtazapine]
- cerebrum concentration, control (P-gp [3]; [4]): 34.90 ng/g or ml
- intestine concentration, control (P-gp [3]; [4]): 19.96 ng/g or ml
- kidney concentration, control (P-gp [3]; [4]): 70.93 ng/g or ml
- liver concentration, control (P-gp [3]; [4]): 12.39 ng/g or ml
- lung concentration, control (P-gp [3]; [4]): 61.47 ng/g or ml
- plasma concentration, control (P-gp [3]; [4]): 7.66 ng/g or ml
- spleen concentration, control (P-gp [3]; [4]): 67.54 ng/g or ml
- testes concentration, control (P-gp [3]; [4]): 61.22 ng/g or ml
- ratio (−/−)/(+/+), cerebrum (P-gp [3]; [5]): 1.5
- ratio (−/−)/(+/+), intestine (P-gp [3]; [5]): 1.2
- ratio (−/−)/(+/+), kidney (P-gp [3]; [5]): 1.3
- ratio (−/−)/(+/+), liver (P-gp [3]; [5]): 1.7
- ratio (−/−)/(+/+), lung (P-gp [3]; [5]): 1.7
- ratio (−/−)/(+/+), plasma (P-gp [3]; [5]): 1.5
- ratio (−/−)/(+/+), spleen (P-gp [3]; [5]): 1.3
- ratio (−/−)/(+/+), testes (P-gp [3]; [5]): 1.8
- cerebrum concentration, abcb1ab (−/−) (P-gp [3]; [6]): 51.31 ng/g or ml
- intestine concentration, abcb1ab (−/−) (P-gp [3]; [6]): 24.58 ng/g or ml
- kidney concentration, abcb1ab (−/−) (P-gp [3]; [6]): 91.22 ng/g or ml
- liver concentration, abcb1ab (−/−) (P-gp [3]; [6]): 20.59 ng/g or ml
- lung concentration, abcb1ab (−/−) (P-gp [3]; [6]): 105.36 ng/g or ml
- plasma concentration, abcb1ab (−/−) (P-gp [3]; [6]): 11.17 ng/g or ml
- spleen concentration, abcb1ab (−/−) (P-gp [3]; [6]): 86.19 ng/g or ml
- testes concentration, abcb1ab (−/−) (P-gp [3]; [6]): 110.29 ng/g or ml
- P-gp substrate status at the BBB (P-gp [3]): not influenced by P-gp
- differences in testes/plasma ratio between knockout and control (P-gp [3]; in vivo, sc): not

SMILES: Cc1ncc2n1-c1ccc(Cl)cc1C(c1ccccc1F)=NC2 [Midazolam]
- Inhibitor (ABCB1): (x)

SMILES: CCc1nn(CCCN2CCN(c3cccc(Cl)c3)CC2)c(=O)n1CCOc1ccccc1 [Nefazodone]
- Inducer (ABCB1): (x)

SMILES: O=C(CCCN1CCC(O)(c2ccc(Cl)cc2)CC1)c1ccc(F)cc1 [Haloperidol]
- Inhibitor (ABCB1; inhibitor of ABCB1): (x)

SMILES: CN(C)CCC=C1c2ccccc2CCc2ccccc21 [Amitriptyline]
- P-gp substrate status at the blood-brain barrier, earlier studies (P-gp [2]): substrates of P-gp at the blood-brain barrier

SMILES: CN(C)CCCC1(c2ccc(F)cc2)OCc2cc(C#N)ccc21 (centres unmarked) [Citalopram]
- genotype-dependent differences in plasma levels of patients (ABCB1 gene): small significant difference
- cerebrum concentration, control (P-gp [3]; [4]): 158.27 ng/g or ml
- kidney concentration, control (P-gp [3]; [4]): 962.29 ng/g or ml
- liver concentration, control (P-gp [3]; [4]): 238.02 ng/g or ml
- lung concentration, control (P-gp [3]; [4]): 1238.71 ng/g or ml
- plasma concentration, control (P-gp [3]; [4]): 106.71 ng/g or ml
- spleen concentration, control (P-gp [3]; [4]): 446.96 ng/g or ml
- testes concentration, control (P-gp [3]; [4]): 428.19 ng/g or ml
- brain concentrations, times higher in the mutant mice compared to wild-type littermates (P-gp [3]; [5]): 3.0 times
- cerebrum concentration, abcb1ab (−/−) (P-gp [3]; [6]): 480.93 ng/g or ml
- kidney concentration, abcb1ab (−/−) (P-gp [3]; [6]): 795.74 ng/g or ml
- liver concentration, abcb1ab (−/−) (P-gp [3]; [6]): 240.33 ng/g or ml
- lung concentration, abcb1ab (−/−) (P-gp [3]; [6]): 1238.47 ng/g or ml
- plasma concentration, abcb1ab (−/−) (P-gp [3]; [6]): 89.37 ng/g or ml
- spleen concentration, abcb1ab (−/−) (P-gp [3]; [6]): 468.29 ng/g or ml
- testes concentration, abcb1ab (−/−) (P-gp [3]; [6]): 687.92 ng/g or ml
- P-gp substrate status at the BBB (P-gp [3]): substrates of P-gp at the BBB
- P-gp substrate status at the blood-brain barrier, earlier studies (P-gp [2]): substrates of P-gp at the blood-brain barrier

SMILES: CCN(CC)CCCC(C)Nc1ccnc2cc(Cl)ccc12 (centres unmarked) [Chloroquine]
- Inhibitor (ABCB1; inhibitor of ABCB1): (x)
